Measured values reported in ChEMBL document CHEMBL5260810, “Inhibition of bromodomain-containing protein 9 for the prevention of epigenetically-defined drug resistance” (Bioorg Med Chem Lett, 2017).

Experiments:
CaR-1 = assay: Cytotoxicity against human CaR-1 cells measured after 8 days; format: functional, cell-based; details: CaR-1, 192 h
[1] = Cytotoxicity against human NCE-G 84 cells measured after 8 days; format: functional, cell-based; details: NCE-G 84, 192 h
[2] = Cytotoxicity against mouse LL2 cells measured after 8 days; format: functional, cell-based; details: Lewis lung carcinoma, 192 h
Hep 3B2 = assay: Cytotoxicity against human Hep 3B2.1-7 cells measured after 8 days; format: functional, cell-based; details: Hep3B, 192 h
[3] = Cytotoxicity against human NB(TU)1 cells measured after 8 days; format: functional, cell-based; details: NB(TU)1, 192 h
RT-4 = assay: Cytotoxicity against human RT-4 cells measured after 8 days; format: functional, cell-based; details: RT-4, 192 h
[4] = Cytotoxicity against mouse FOX-NY cells measured after 8 days; format: functional, cell-based; details: 192 h
[5] = Cytotoxicity against human HuH-1 cells measured after 8 days; format: functional, cell-based; details: HuH-1, 192 h
NCI-H417 = assay: Cytotoxicity against human NCI-H417 cells measured after 8 days; format: functional, cell-based; details: NCI-H417, 192 h
[6] = Cytotoxicity against human COV413A cells measured after 8 days; format: functional, cell-based; details: 192 h
IPC-298 = assay: Cytotoxicity against human IPC-298 cells measured after 8 days; format: functional, cell-based; details: IPC-298, 192 h
[7] = Cytotoxicity against human SNU-601 cells measured after 8 days; format: functional, cell-based; details: SNU-601, 192 h
SU-DHL10 = assay: Cytotoxicity against human SU-DHL-10 cells measured after 8 days; format: functional, cell-based; details: SU-DHL10, 192 h
[8] = molecular target: GABA-A receptor; alpha-1/beta-2/gamma-2 (Homo sapiens) (UniProt P14867+P47870+P18507); assay: Inhibition of GABA alpha1/beta2/gamma2 (unknown origin) at 1 uM relative to control; format: protein-complex assay
HuP-T4 = assay: Cytotoxicity against human HuP-T4 cells measured after 8 days; format: functional, cell-based; details: HuP-T4, 192 h
[9] = Cytotoxicity against mouse AB22 cells measured after 8 days; format: functional, cell-based; details: AB22, 192 h
[10] = Cytotoxicity against human PK-8 cells measured after 8 days; format: functional, cell-based; details: PK-8, 192 h
SK-OV-3 = assay: Cytotoxicity against human SK-OV-3 cells measured after 8 days; format: functional, cell-based; details: SK-OV-3, 192 h
KLE = assay: Cytotoxicity against human KLE cells measured after 8 days; format: functional, cell-based; details: 192 h
Panc1005 = assay: Cytotoxicity against human Panc1005 cells measured after 8 days; format: functional, cell-based; details: Panc1005, 192 h
C2BBe1 = assay: Cytotoxicity against human C2BBe1 cells measured after 8 days; format: functional, cell-based; details: C2BBe1, 192 h
[11] = Cytotoxicity against human NCE-G 130 cells measured after 8 days; format: functional, cell-based; details: NCE-G 130, 192 h
[12] = Cytotoxicity against human COLO 858 cells measured after 8 days; format: functional, cell-based; details: COLO 858, 192 h
[13] = Cytotoxicity against human KP-3L cells measured after 8 days; format: functional, cell-based; details: 192 h
SNU-16 = assay: Cytotoxicity against human SNU-16 cells measured after 8 days; format: functional, cell-based; details: SNU-16, 192 h
A20 = assay: Cytotoxicity against mouse A20 cells measured after 8 days; format: functional, cell-based; details: A20, 192 h
EFM-19 = assay: Cytotoxicity against human EFM-19 cells measured after 8 days; format: functional, cell-based; details: EFM-19, 192 h
[14] = Cytotoxicity against human BM-1604 cells measured after 8 days; format: functional, cell-based; details: BM-1604, 192 h
SK-N-BE(2)-M17 = assay: Cytotoxicity against human SK-N-BE(2)-M17 cells measured after 8 days; format: functional, cell-based; details: SK-N-BE(2)-M17, 192 h
KYSE-510 = assay: Cytotoxicity against human KYSE-510 cells measured after 8 days; format: functional, cell-based; details: KYSE-510, 192 h
MDA-MB-435 = assay: Cytotoxicity against human MDA-MB-435 cells measured after 8 days; format: functional, cell-based; details: MDA-MB-435, 192 h
C170 = assay: Cytotoxicity against human C170 cells measured after 8 days; format: functional, cell-based; details: C170, 192 h
8505C = assay: Cytotoxicity against human 8505C cells measured after 8 days; format: functional, cell-based; details: 192 h
SNB-19 = assay: Cytotoxicity against human SNB-19 cells measured after 8 days; format: functional, cell-based; details: SNB-19, 192 h
[15] = Cytotoxicity against human BICR 22 cells measured after 8 days; format: functional, cell-based; details: BICR 22, 192 h
RVH-421 = assay: Cytotoxicity against human RVH-421 cells measured after 8 days; format: functional, cell-based; details: RVH-421, 192 h
Hs 683 = assay: Cytotoxicity against human Hs 683 cells measured after 8 days; format: functional, cell-based; details: Hs 683, 192 h
[16] = Cytotoxicity against human SUM52PE cells measured after 8 days; format: functional, cell-based; details: 192 h
HeLa = assay: Cytotoxicity against human HeLa cells measured after 8 days; format: functional, cell-based; details: 192 h
Jurkat = assay: Cytotoxicity against human Jurkat cells measured after 8 days; format: functional, cell-based; details: 192 h
[17] = Cytotoxicity against human Panc 02.03 cells measured after 8 days; format: functional, cell-based; details: Panc 02.03, 192 h
NCI-H446 = assay: Cytotoxicity against human NCI-H446 cells measured after 8 days; format: functional, cell-based; details: NCI-H446, 192 h
[18] = Cytotoxicity against human KCI-MOH1 cells measured after 8 days; format: functional, cell-based; details: KCI-MOH1, 192 h
LXFL 529 = assay: Cytotoxicity against human LXFL 529 cells measured after 8 days; format: functional, cell-based; details: LXFL 529, 192 h
Karpas-1106P = assay: Cytotoxicity against human KARPAS-1106P cells measured after 8 days; format: functional, cell-based; details: 192 h
[19] = Cytotoxicity against human PE/CA-PJ15 cells measured after 8 days; format: functional, cell-based; details: PE/CA-PJ15, 192 h
[20] = Cytotoxicity against human NCI-H196 cells measured after 8 days; format: functional, cell-based; details: NCI-H196, 192 h
G-361 = assay: Cytotoxicity against human G-361 cells measured after 8 days; format: functional, cell-based; details: G-361, 192 h
[21] = Cytotoxicity against human SNU-620 cells measured after 8 days; format: functional, cell-based; details: SNU620, 192 h
ASPC1 = assay: Cytotoxicity against human ASPC1 cells measured after 8 days; format: functional, cell-based; details: ASPC1, 192 h
[22] = Cytotoxicity against human OVCA432 cells measured after 8 days; format: functional, cell-based; details: OVCA432, 192 h
[23] = Cytotoxicity against human KP-3 cells measured after 8 days; format: functional, cell-based; details: KP-3, 192 h
Detroit 562 = assay: Cytotoxicity against human Detroit 562 cells measured after 8 days; format: functional, cell-based; details: Detroit 562, 192 h
HMV-2 cell line = assay: Cytotoxicity against human HMV-2 cell line measured after 8 days; format: functional, cell-based; details: HMV-2, 192 h
[24] = Cytotoxicity against human 4498-16820 Mel-BR1 X1 cells measured after 8 days; format: functional, cell-based; details: 4498-16820 Mel-BR1 X1, 192 h
Hs 766 = assay: Cytotoxicity against human Hs 766 cells measured after 8 days; format: functional, cell-based; details: Hs 766, 192 h
[25] = Cytotoxicity against human OVCA 420 cells measured after 8 days; format: functional, cell-based; details: OVCA 420, 192 h
ML-2 = assay: Cytotoxicity against human ML-2 cells measured after 8 days; format: functional, cell-based; details: ML-2, 192 h
[26] = Cytotoxicity against mouse ID8 cells measured after 8 days; format: functional, cell-based; details: ID8, 192 h

C/C=C/Cn1cc(-c2ccc(C(C)(C)O)cc2OC)c2cc[nH]c2c1=O
IC50 (CaR-1): 20 µM | IC50 [1]: 20 µM | IC50 [2]: 20 µM | IC50 (Hep 3B2): 20 µM | IC50 [3]: 20 µM | IC50 (RT-4): 20 µM | IC50 [4]: 20 µM | IC50 [5]: 20 µM | IC50 (NCI-H417): 20 µM | IC50 [6]: 20 µM | IC50 (IPC-298): 20 µM | IC50 [7]: 20 µM | IC50 (SU-DHL10): 10.9 µM | inhibition [8]: 4% | IC50 (HuP-T4): 20 µM | IC50 [9]: 20 µM | IC50 [10]: 20 µM | IC50 (SK-OV-3): 20 µM | IC50 (KLE): 20 µM | IC50 (Panc1005): 20 µM | IC50 (C2BBe1): 20 µM | IC50 [11]: 20 µM | IC50 [12]: 20 µM | IC50 [13]: 20 µM | IC50 (SNU-16): 20 µM | IC50 (A20): 3.43 µM | IC50 (EFM-19): 20 µM | IC50 [14]: 20 µM | IC50 (SK-N-BE(2)-M17): 20 µM | IC50 (KYSE-510): 20 µM | IC50 (MDA-MB-435): 11.1 µM | IC50 (C170): 20 µM | IC50 (8505C): 20 µM | IC50 (SNB-19): 20 µM | IC50 [15]: 20 µM | IC50 (RVH-421): 20 µM | IC50 (Hs 683): 20 µM | IC50 [16]: 20 µM | IC50 (HeLa): 20 µM | IC50 (Jurkat): 14.8 µM | IC50 [17]: 20 µM | IC50 (NCI-H446): 20 µM | IC50 [18]: 20 µM | IC50 (LXFL 529): 20 µM | IC50 (Karpas-1106P): 8.61 µM | IC50 [19]: 20 µM | IC50 [20]: 20 µM | IC50 (G-361): 20 µM | IC50 [21]: 20 µM | IC50 (ASPC1): 20 µM | IC50 [22]: 20 µM | IC50 [23]: 20 µM | IC50 (Detroit 562): 20 µM | IC50 (HMV-2 cell line): 20 µM | IC50 [24]: 20 µM | IC50 (Hs 766): 20 µM | IC50 [25]: 20 µM | IC50 (ML-2): 20 µM | IC50 [26]: 20 µM

C/C=C/Cn1cc(-c2ccc(C(=O)N3CCOCC3)cc2)c2cc[nH]c2c1=O
IC50 (CaR-1): 20 µM | IC50 [1]: 20 µM | IC50 [2]: 20 µM | IC50 (Hep 3B2): 20 µM | IC50 [3]: 20 µM | IC50 (RT-4): 20 µM | IC50 [4]: 11.9 µM | IC50 [5]: 20 µM | IC50 (NCI-H417): 20 µM | IC50 [6]: 20 µM | IC50 (IPC-298): 18.6 µM | IC50 [7]: 20 µM | IC50 (SU-DHL10): 20 µM | inhibition [8]: 8% | IC50 (HuP-T4): 20 µM | IC50 [9]: 20 µM | IC50 [10]: 20 µM | IC50 (SK-OV-3): 20 µM | IC50 (KLE): 20 µM | IC50 (Panc1005): 20 µM | IC50 (C2BBe1): 20 µM | IC50 [11]: 20 µM | IC50 [12]: 20 µM | IC50 [13]: 20 µM | IC50 (SNU-16): 20 µM | IC50 (A20): 7 µM | IC50 (EFM-19): 20 µM | IC50 [14]: 20 µM | IC50 (SK-N-BE(2)-M17): 20 µM | IC50 (KYSE-510): 20 µM | IC50 (MDA-MB-435): 20 µM | IC50 (C170): 20 µM | IC50 (8505C): 20 µM | IC50 (SNB-19): 20 µM | IC50 [15]: 20 µM | IC50 (RVH-421): 20 µM | IC50 (Hs 683): 20 µM | IC50 [16]: 20 µM | IC50 (HeLa): 20 µM | IC50 (Jurkat): 20 µM | IC50 [17]: 20 µM | IC50 (NCI-H446): 20 µM | IC50 [18]: 20 µM | IC50 (LXFL 529): 20 µM | IC50 (Karpas-1106P): 12.2 µM | IC50 [19]: 20 µM | IC50 [20]: 20 µM | IC50 (G-361): 20 µM | IC50 [21]: 20 µM | IC50 (ASPC1): 20 µM | IC50 [22]: 20 µM | IC50 [23]: 20 µM | IC50 (Detroit 562): 20 µM | IC50 (HMV-2 cell line): 20 µM | IC50 [24]: 20 µM | IC50 (Hs 766): 20 µM | IC50 [25]: 20 µM | IC50 (ML-2): 20 µM | IC50 [26]: 20 µM
